Measured values published in ChEMBL document CHEMBL5537141, “Targeting PIM kinases in cancer therapy: An update on pharmacological small-molecule inhibitors” (Eur J Med Chem, 2024).

Assay: Metabolic stability in human liver microsomes assessed as half life measured upto 60 mins by LC/MS-MS analysis
Type: ADME, Microsome

Row | SMILES | half-life
1 | C[C@@H]1C[C@H](N)C[C@H](c2ccncc2NC(=O)c2ccc(F)c(-c3ccccc3F)n2)C1 | > 180 min
2 | C[C@@H]1C[C@H](N)CN(c2ccncc2NC(=O)c2ccc(F)c(-c3ccccc3F)n2)C1 | 13 min
3 | C[C@@H]1C[C@H](N)CN(c2ccncc2NC(=O)c2ccc(F)c(-c3c(F)cccc3F)n2)C1 | 40 min
